Measurements taken from paper PMC6149971, “In Vivo and In Vitro Activities and ADME-Tox Profile of a Quinolizidine-Modified 4-Aminoquinoline: A Potent Anti-P. falciparum and Anti-P. vivax Blood-Stage Antimalarial” (Molecules : A Journal of Synthetic Chemistry and Natural …, 2017).

Assays:
P. falciparum W-2 (CQ-R) = test system: P. falciparum W-2 (CQ-R); set-up: method as in PMID 22901673; details: 72 h incubation, pLDH method, mean of 3 experiments; data already published; cited from earlier work
CYP1A2 = molecular target: T1, CYP1A2 (Homo sapiens, UniProt P05177); test: in vitro
T1 sequence (P05177 1-516): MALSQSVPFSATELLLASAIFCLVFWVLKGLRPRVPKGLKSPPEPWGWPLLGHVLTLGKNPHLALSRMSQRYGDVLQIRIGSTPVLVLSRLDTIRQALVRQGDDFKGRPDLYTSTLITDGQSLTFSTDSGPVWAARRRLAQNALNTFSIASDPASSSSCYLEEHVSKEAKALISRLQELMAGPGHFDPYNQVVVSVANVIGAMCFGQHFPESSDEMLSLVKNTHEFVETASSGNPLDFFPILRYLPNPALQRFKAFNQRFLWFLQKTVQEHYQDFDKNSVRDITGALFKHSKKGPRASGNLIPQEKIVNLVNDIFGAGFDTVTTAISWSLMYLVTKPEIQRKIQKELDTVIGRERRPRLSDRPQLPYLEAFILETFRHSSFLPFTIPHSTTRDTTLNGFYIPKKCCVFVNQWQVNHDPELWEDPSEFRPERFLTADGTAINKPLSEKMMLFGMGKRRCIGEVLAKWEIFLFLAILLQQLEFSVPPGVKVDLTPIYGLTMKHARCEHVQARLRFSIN

[1] = Microsome stability and metabolism studies, mouse; type: in vitro ADME; set-up: key: +: Metabolic Products Detected In Vitro and In Vivo; ND: Not detectable; details: (−)-AM1 1 μM, at 30 min
Experimental: Samples from the metabolic stability and metabolism studies were analyzed under the following conditions: UPLC interfaced with a Premiere XE triple Quadrupole Waters for stability studies, and Bruker Daltonics Ion Trap HCT Ultra for metabolic studies. A gradient from 2% to 100% (Water, MeOH, 5 mM Ammonium Acetate) over 2 min (stability) or 12 min (metabolism) in a C18 BEH (dimensions 1 by 50 mm for stability and 2.1 by 100 mm for metabolism, 1.7 µm column, 45 °C temperature, flow rate 0.5 mL/min) was used. For stability studies, the detection was performed in MRM (ESI positive, Q1/Q3 330.16/152.00, Cone Voltage 45 V; Extractor 5 V; Capillary 3.4 kV), while for metabolism studies, analysis was performed in Auto MS/MS mode (ESI positive; Capillary 109 V; Dry Temp 350 °C; Nebulizer 30 psi; Dry gas 10 L/min; HV capillary 500 V; Mass Accu time 500 µs; Mass range MS scan 100–600 amu, MS/MS 50–450 amu).
For stability and metabolism studies, test compounds were dissolved in DMSO, diluted at the final concentration of 1 µM, and pre-incubated in duplicate for 10 min at 37 °C in potassium phosphate buffer, pH 7.4, 3 mM MgCl2, with rat, mouse, and human hepatic microsomes (Xenotech Europe, Pfungstadt, Germany) at the final concentration of 0.5 mg/mL. The reaction was then started by adding the cofactor mixture of NADP, Glc6P, and G6P-DH, in the presence of UDPGA 1 mM in human microsomes to promote glucuronide formation. Acetonitrile (with verapamil as internal standard) was added to the samples at the times time 0 and 30 min to stop the reaction. Samples were then centrifuged and the supernatants analysed and quantified by LC-MS/MS. Reference compounds of known metabolic stability, 7-ethoxycoumarin (7-EC) and propranolol, were used as controls.
The percentage of the area of test compounds remaining after 30 min incubation was calculated in respect to the area of compounds at time = 0 min. […] Samples were re-analyzed by acquiring the daughter scan of the potential metabolites found during the full scan acquisition.

CYP2C9 = CYP2C9 (Homo sapiens, UniProt P11712); test: in vitro
Sequence of CYP2C9 (P11712 whole entry): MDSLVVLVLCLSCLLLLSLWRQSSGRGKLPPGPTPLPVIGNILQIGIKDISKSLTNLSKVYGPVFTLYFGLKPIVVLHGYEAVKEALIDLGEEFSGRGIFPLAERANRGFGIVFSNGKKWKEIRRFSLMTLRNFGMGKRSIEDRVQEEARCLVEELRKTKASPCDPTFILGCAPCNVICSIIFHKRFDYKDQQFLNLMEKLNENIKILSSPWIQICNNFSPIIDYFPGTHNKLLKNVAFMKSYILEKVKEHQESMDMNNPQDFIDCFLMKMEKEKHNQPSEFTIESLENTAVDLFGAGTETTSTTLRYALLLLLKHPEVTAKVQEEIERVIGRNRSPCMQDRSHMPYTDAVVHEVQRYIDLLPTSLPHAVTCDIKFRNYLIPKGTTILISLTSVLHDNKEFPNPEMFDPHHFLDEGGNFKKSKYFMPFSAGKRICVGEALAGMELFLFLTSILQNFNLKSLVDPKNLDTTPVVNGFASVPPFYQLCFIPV

[2] = Metabolites in mouse plasma after oral treatment; type: in vivo; set-up: key: +: Metabolic Products Detected In Vitro and In Vivo; ND: Not detectable; details: after 50 mg/kg (−)-AM1 oral gavage, at 120 min
Experimental: A representative chromatogram in the mouse and the MS spectra are shown in Figure S1 (Supplementary Materials), while the proposed structures of metabolites in all the species, together with the retention times, are shown in Table 3. In the same table, the metabolites found in mouse plasma after 50 mg/kg oral treatment are included. The retention times and [M + H]^+ of the metabolites are the same for all three species.
The parent [M + H]^+ = 330 and the metabolites [M + H]^+ = 346 and [M + H]^+ = 344 were also detected in the mouse plasma samples collected after oral treatment of CD1 mice with 50 mg/kg of (−)-AM1 (Figure S4).
Samples from the metabolic stability and metabolism studies were analyzed under the following conditions: UPLC interfaced with a Premiere XE triple Quadrupole Waters for stability studies, and Bruker Daltonics Ion Trap HCT Ultra for metabolic studies. A gradient from 2% to 100% (Water, MeOH, 5 mM Ammonium Acetate) over 2 min (stability) or 12 min (metabolism) in a C18 BEH (dimensions 1 by 50 mm for stability and 2.1 by 100 mm for metabolism, 1.7 µm column, 45 °C temperature, flow rate 0.5 mL/min) was used. […]

P. falciparum D10 (CQ-S) = test: Combination with dihydroartemisinin (isobologram), D10; type: cell-based; details: additive activity
Experimental: Figure 2 Isobologram analysis of the antimalarial activity of (−)-AM1 in combination with dihydroartemisinin (DHA) against D10 chloroquine-sensitive (CQ-S) (A) or W2 chloroquine-resistant (CQ-R) (B) P. falciparum strains. […]. DHA fractional IC50 values were calculated by dividing the IC50 of DHA combined with (−)-AM1 or CQ, respectively, by the IC50 of DHA alone, and plotted on the horizontal axis. The corresponding fractional (−)-AM1 or CQ IC50 values were calculated by dividing each fixed concentration by the IC50 of the (−)-AM1 or CQ alone, and plotted on the vertical axis. An isobologram close to the diagonal indicates an additive effect.
The antimalarial activity of (−)-AM1 was assayed in combination with dihydroartemisinin (DHA) against W-2 (CQ-R) or D10 (CQ-S) strains of P. falciparum by potentiation tests as previously described. CQ was used as a control. Isobolograms were constructed by plotting a pair of fractional IC50 values for each combination of (−)-AM1 or CQ with DHA [40].
An isobologram close to the diagonal indicates an additive effect.

Clc1ccc2c(NC[C@@H]3CCCN4CCCC[C@H]34)ccnc2c1 [(−)-AM1, 7-chloro-N-(((1S,9aR)-octahydro-1H-quinolizin-1-yl)methyl)quinolin-4-amine]
IC50 (P. falciparum W-2 (CQ-R)): 53.7 nM | inhibition at 3 µM (CYP1A2): < 5% | Metabolic products detected, in vitro microsomes, mouse [1]: + | inhibition at 3 µM (CYP2C9): < 5% | Metabolic products detected, in vivo plasma levels, mouse [2]: + | FIC in combination with DHA (P. falciparum D10 (CQ-S)): < 2
